Experimental data taken from ChEMBL document CHEMBL5143671, “Discovery of (R)-(3-fluoropyrrolidin-1-yl)(6-((5-(trifluoromethyl)pyridin-2-yl)oxy)quinolin-2-yl)methanone (ABBV-318) and analogs as small molecule Nav1.7/ Nav1.8 blockers for the treatment of pain” (Bioorg Med Chem, 2022).
In brackets after ≈: the same amount, converted by molar mass.

Experiments:
[1] = in vivo; settings: Sprague-Dawley, rat, iv
[2] = in vitro; settings: PAMPA
[3] = target: Sodium channel protein type 5 subunit alpha (Homo sapiens, UniProt Q14524)
Sodium channel protein type 5 subunit alpha, sequence (Q14524 whole entry): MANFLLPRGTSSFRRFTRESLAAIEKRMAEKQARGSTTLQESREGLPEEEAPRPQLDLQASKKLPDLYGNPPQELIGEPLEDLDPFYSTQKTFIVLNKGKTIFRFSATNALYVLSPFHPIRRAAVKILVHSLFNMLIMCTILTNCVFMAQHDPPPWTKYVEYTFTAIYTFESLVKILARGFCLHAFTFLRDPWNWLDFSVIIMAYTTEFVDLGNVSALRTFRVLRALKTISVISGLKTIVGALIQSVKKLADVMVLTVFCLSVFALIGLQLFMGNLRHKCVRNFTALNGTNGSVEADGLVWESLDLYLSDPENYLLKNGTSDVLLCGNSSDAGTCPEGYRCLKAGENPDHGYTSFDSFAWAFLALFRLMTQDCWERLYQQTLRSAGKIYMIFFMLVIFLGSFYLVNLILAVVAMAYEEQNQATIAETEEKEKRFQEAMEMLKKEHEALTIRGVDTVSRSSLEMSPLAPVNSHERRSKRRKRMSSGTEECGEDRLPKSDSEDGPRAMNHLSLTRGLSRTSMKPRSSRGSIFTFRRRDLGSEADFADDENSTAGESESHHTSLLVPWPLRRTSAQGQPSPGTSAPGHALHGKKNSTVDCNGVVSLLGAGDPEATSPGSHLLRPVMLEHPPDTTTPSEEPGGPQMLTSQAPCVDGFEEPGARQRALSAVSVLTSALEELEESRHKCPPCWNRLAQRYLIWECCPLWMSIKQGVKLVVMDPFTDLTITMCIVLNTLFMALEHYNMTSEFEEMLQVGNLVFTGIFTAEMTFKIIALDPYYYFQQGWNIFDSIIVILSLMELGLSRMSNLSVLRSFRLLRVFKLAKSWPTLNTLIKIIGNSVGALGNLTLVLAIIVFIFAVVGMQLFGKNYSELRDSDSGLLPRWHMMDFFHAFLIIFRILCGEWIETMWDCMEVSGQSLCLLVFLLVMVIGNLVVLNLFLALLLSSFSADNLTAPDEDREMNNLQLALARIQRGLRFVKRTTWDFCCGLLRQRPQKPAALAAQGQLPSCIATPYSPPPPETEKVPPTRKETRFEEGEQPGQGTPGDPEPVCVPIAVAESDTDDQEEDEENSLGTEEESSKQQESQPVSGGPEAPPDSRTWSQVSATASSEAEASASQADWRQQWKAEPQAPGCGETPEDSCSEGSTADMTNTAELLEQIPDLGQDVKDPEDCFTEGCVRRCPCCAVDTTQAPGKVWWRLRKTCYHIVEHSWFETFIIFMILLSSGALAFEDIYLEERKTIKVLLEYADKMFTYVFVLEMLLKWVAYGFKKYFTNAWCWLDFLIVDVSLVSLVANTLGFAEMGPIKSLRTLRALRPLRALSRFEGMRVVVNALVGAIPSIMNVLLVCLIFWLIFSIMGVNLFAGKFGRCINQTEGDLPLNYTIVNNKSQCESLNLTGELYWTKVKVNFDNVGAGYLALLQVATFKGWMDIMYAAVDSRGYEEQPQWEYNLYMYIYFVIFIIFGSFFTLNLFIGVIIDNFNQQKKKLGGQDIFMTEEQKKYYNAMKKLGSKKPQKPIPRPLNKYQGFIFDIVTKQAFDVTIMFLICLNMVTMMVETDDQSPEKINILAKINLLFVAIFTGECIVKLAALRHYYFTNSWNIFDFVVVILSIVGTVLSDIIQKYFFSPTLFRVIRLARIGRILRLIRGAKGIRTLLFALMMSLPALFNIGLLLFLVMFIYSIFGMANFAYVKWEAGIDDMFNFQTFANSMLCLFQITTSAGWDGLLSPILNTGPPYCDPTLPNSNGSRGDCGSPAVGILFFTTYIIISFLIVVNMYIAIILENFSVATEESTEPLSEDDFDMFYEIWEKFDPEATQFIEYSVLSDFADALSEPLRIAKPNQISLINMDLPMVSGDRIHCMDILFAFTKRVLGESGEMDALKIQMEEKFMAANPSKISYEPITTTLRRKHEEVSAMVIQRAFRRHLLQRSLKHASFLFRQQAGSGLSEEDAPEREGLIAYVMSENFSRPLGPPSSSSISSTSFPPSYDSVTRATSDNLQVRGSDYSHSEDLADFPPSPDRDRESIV

[4] = in vivo; settings: Sprague-Dawley, rat, po
[5] = physchem; settings: phosphate buffer
[6] = human, microsomes, 0.5 h, 0.5 µM
[7] = physchem; settings: octanol/water
[8] = rat, microsomes, 0.5 h, 0.5 µM
[9] = in vitro; settings: dog, MDCK
[10] = target: Voltage-gated inwardly rectifying potassium channel KCNH2 (Homo sapiens, UniProt Q12809);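 also: hERG channel blockade measured by electrophysiology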
Voltage-gated inwardly rectifying potassium channel KCNH2, sequence (Q12809 whole entry): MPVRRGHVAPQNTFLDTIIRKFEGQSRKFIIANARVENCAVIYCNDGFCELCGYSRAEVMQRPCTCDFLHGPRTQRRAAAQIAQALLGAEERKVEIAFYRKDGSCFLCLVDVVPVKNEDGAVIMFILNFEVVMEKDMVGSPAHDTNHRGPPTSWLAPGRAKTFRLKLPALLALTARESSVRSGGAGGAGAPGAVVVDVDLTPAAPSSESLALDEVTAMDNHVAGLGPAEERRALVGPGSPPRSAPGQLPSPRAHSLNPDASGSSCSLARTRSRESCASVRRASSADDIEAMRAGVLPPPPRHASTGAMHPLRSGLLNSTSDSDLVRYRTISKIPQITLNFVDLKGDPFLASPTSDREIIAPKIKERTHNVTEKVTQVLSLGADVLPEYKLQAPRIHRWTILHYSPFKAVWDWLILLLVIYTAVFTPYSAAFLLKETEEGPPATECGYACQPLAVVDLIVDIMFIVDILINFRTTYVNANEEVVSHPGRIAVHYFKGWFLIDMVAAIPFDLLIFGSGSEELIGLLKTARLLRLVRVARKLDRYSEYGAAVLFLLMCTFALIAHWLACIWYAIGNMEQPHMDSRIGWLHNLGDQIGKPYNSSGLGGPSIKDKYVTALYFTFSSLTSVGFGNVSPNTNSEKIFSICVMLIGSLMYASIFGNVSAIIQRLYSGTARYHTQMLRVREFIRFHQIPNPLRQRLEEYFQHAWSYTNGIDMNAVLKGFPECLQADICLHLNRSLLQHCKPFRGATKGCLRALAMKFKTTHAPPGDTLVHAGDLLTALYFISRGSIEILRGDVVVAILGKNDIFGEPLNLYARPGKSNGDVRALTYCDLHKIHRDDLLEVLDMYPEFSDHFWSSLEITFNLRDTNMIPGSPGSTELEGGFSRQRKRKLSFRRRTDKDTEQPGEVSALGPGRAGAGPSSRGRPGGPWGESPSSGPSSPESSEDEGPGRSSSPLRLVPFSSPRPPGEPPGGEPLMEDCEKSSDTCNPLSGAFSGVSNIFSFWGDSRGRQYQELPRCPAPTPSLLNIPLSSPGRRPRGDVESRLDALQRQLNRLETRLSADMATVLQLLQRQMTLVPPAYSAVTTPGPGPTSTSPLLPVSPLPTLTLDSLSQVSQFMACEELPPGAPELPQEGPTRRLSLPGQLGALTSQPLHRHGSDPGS

[11] = system: MDR1; test: in vitro; settings: dog, MDCK-MDR1
[12] = system: Rattus norvegicus; test: Antiallodynic activity in Sprague-Dawley rat model of L5/L6 spinal nerve ligation-induced neuropathic pain assessed as maximal possible effect at 30 mg/kg, po; assay type: functional
[13] = target: Sodium channel protein type 2 subunit alpha (Homo sapiens, UniProt Q99250); test: Inhibition of recombinant human Nav1.2 expressed in HEK293 cells incubated for 3 mins by FRET based membrane potential assay; assay type: cell-based
Sodium channel protein type 2 subunit alpha, sequence (Q99250 whole entry): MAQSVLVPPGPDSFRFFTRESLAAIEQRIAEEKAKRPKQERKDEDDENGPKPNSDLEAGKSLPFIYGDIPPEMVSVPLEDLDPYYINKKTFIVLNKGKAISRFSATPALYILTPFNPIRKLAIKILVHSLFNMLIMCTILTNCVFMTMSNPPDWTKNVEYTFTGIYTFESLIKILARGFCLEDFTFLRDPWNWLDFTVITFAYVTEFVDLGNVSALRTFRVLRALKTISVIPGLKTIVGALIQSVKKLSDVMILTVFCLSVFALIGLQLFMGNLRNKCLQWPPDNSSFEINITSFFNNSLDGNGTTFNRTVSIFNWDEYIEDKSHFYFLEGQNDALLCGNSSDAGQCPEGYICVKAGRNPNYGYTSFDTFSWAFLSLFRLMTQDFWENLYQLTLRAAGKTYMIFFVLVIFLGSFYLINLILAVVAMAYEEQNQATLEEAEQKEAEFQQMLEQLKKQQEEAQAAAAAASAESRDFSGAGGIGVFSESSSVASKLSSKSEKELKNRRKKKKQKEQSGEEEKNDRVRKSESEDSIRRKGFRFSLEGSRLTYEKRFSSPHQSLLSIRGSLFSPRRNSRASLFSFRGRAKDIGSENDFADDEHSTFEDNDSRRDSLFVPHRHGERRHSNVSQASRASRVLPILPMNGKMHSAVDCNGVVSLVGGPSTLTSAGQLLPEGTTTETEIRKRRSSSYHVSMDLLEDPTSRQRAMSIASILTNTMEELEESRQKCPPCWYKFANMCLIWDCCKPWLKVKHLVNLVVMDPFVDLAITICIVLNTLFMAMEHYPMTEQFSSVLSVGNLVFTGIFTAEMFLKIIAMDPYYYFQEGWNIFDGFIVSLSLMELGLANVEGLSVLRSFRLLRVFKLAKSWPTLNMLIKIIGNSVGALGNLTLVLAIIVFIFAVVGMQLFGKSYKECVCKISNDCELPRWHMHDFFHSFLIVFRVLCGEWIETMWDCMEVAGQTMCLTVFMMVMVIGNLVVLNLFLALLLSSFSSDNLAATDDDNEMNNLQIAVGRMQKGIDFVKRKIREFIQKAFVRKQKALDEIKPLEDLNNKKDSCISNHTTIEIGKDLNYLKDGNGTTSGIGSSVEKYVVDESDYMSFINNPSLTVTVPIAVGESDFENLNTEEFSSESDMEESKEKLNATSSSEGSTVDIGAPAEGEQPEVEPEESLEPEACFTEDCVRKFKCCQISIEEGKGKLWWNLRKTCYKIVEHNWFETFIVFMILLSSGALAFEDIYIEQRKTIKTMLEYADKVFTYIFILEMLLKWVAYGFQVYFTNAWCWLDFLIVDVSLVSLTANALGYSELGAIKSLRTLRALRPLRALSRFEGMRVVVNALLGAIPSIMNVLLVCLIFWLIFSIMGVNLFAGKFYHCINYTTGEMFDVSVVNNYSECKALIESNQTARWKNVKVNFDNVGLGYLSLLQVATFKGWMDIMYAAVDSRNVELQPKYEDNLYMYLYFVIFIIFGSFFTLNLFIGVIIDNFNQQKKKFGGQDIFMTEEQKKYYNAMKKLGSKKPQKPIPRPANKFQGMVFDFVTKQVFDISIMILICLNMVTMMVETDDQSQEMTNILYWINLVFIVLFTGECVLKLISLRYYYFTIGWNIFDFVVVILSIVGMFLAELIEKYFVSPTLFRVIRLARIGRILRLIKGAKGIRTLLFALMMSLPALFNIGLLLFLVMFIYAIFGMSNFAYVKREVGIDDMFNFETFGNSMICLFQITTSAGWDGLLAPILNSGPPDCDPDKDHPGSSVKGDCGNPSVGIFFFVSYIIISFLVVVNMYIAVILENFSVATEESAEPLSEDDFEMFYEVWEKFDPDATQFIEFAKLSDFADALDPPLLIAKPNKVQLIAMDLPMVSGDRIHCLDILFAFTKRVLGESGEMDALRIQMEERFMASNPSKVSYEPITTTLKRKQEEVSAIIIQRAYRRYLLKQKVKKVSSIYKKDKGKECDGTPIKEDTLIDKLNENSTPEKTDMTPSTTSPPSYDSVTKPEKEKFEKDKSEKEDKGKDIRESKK

[14] = Ratio of free drug concentration in brain to plasma of rat; assay type: ADME, cell-free; settings: brain and plasma
[15] = Drug concentration in plasma of Sprague-Dawley rat model of L5/L6 spinal nerve ligation-induced neuropathic pain at 100 mg/kg, po by LC/MS analysis; assay type: ADME, organism-based; settings: in vivo
[16] = target: Sodium channel protein type 9 subunit alpha (Homo sapiens, UniProt Q15858)
[17] = system: Rattus norvegicus; test: Antiallodynic activity in Sprague-Dawley rat model of L5/L6 spinal nerve ligation-induced neuropathic pain assessed as maximal possible effect at 100 mg/kg, po; assay type: functional
[18] = Drug concentration in brain of Sprague-Dawley rat model of L5/L6 spinal nerve ligation-induced neuropathic pain at 10 mg/kg, po by LC/MS analysis; assay type: ADME, organism-based; settings: in vivo
[19] = system: Rattus norvegicus; test: Antiallodynic activity in Sprague-Dawley rat model of L5/L6 spinal nerve ligation-induced neuropathic pain assessed as maximal possible effect at 10 mg/kg, po; assay type: functional
[20] = Drug concentration in brain of Sprague-Dawley rat model of L5/L6 spinal nerve ligation-induced neuropathic pain at 30 mg/kg, po by LC/MS analysis; assay type: ADME, organism-based; settings: in vivo
[21] = Drug concentration in plasma of Sprague-Dawley rat model of L5/L6 spinal nerve ligation-induced neuropathic pain at 10 mg/kg, po by LC/MS analysis; assay type: ADME, organism-based; settings: in vivo
[22] = Drug concentration in brain of Sprague-Dawley rat model of L5/L6 spinal nerve ligation-induced neuropathic pain at 100 mg/kg, po by LC/MS analysis; assay type: ADME, organism-based; settings: in vivo
[23] = target: Sodium channel protein type 10 subunit alpha (Homo sapiens, UniProt Q9Y5Y9); test: Inhibition of human Nav1.8 by FRET based membrane potential assay
[24] = Drug concentration in plasma of Sprague-Dawley rat model of L5/L6 spinal nerve ligation-induced neuropathic pain at 30 mg/kg, po by LC/MS analysis; assay type: ADME, organism-based; settings: in vivo
[25] = in vivo; settings: Sprague-Dawley, rat, po; remark: listed apart in the source
[26] = rat, in vivo, po
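For logD in this document: distribution coefficient quantified using high-throughput LC-MS.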
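For solubility in this document: determined using a high-throughput solubility method.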

Row | Compound | Papp [2] [×10⁻⁶ cm/s] | IC50 [3] [µM] | solubility [5] [µM] | CLH [6] [mL/min/kg] | logD [7] | CLH [8] [mL/min/kg] | Papp [9] [×10⁻⁶ cm/s] | IC50 [10] [µM] | further results
1 | O=C(N[C@H]1C[C@@H](O)C1)c1ccc2cc(Oc3ccc(C(F)(F)F)cn3)ccc2n1 | 19.5 | 33 | 10 (≈ 4.03 µg/mL) |  |  |  |  |  | clearance [1]: 60.3 mL/min/kg; bioavailability [4]: 23%
2 | O=C(c1ccc2cc(Oc3ccc(C(F)(F)F)cn3)ccc2n1)N1CCCC1 |  | 33 |  |  |  |  |  |  | 
3 | N#Cc1ccc(Oc2ccc3nc(OCC(=O)N4CCOCC4)ccc3c2)cc1 |  |  |  | 50 | 3.4 | < 50 | 30.1 |  | 
4 | N#Cc1ccc(COc2ccc3nc(C(=O)N4CCNCC4)ccc3c2)cc1 | 2.7 |  | 143 (≈ 53.3 µg/mL) |  | 2.9 |  |  | 5.61 | efflux ratio [11]: 23.4
5 | N#Cc1ccc(Oc2ccc3c(ccc(=O)n3CCN3CCCCC3)c2)cc1 | 3.7 | 1.6 | 140 (≈ 52.3 µg/mL) | 150 | 3.4 | 633 |  | < 1 | clearance [1]: 52.7 mL/min/kg; MPE [12]: 53%; IC50 [13]: 3.4 µM; Kp uu [14]: 0.45; Cp [15]: 1270 ng/mL; IC50 [16]: 2.28 µM; MPE [17]: 89%; Ct [18]: 0.56 µg/mL; MPE [19]: 54%; Ct [20]: 1.05 µg/mL; bioavailability [4]: 17%; Cp [21]: 290 ng/mL; Ct [22]: 3.38 µg/mL; IC50 [23]: 0.08 µM; Cp [24]: 470 ng/mL
6 | N#Cc1ccc(Oc2ccc3nc(C(=O)N4CCNCC4)ccc3c2)cc1 |  |  | 194 (≈ 69.5 µg/mL) |  | 2.6 |  | 0.4 | 5.2 | clearance [1]: < 33.3 mL/min/kg; bioavailability [4]: 89%
7 | N#Cc1ccc(-c2ccc3c(ccc(=O)n3CCN3CCCCC3)c2)cc1 | 8.3 |  |  | 33 |  | 100 |  | < 1 | 
8 | O=C(c1ccc2cc(Oc3cnc(C(F)(F)F)cn3)ccc2n1)N1CCNCC1 | 3.8 |  | 149 (≈ 60.1 µg/mL) |  | 2.7 |  |  | 18.6 | efflux ratio [11]: 16.1
9 | O=C1CN(C(=O)COc2ccc3cc(Oc4ccccn4)ccc3n2)CCN1 |  |  | 200 (≈ 75.7 µg/mL) | 65 |  | < 65 | 22 | 30 | 
10 | O=C(c1ccc2cc(Oc3ncc(C(F)(F)F)cn3)ccc2n1)N1CCNCC1 | 1.5 |  | 138 (≈ 55.7 µg/mL) |  | 2.1 |  |  |  | 
11 | O=C(c1ccc2cc(Oc3ccc(C(F)(F)F)cn3)ccc2n1)N1CCN(CC(F)(F)F)CC1 |  | 33 | 46 (≈ 22.3 µg/mL) |  |  |  | 24.6 |  | 
12 | O=C(COc1ccc2cc(Oc3ccc(C(F)(F)F)cn3)ccc2n1)N1CCCCC1 |  |  | 48 (≈ 20.7 µg/mL) | 233 |  | 917 | 38.6 |  | 
13 | O=C(N[C@@H]1CCOC1=O)c1ccc2cc(Oc3ccc(C(F)(F)F)cn3)ccc2n1 | 32.7 | 33 | 5 (≈ 2.09 µg/mL) |  |  |  |  |  | 
14 | CC(=O)c1ccc(Oc2ccc3nc(C(=O)N4CCNCC4)ccc3c2)cc1 |  |  | 145 (≈ 54.4 µg/mL) |  | 3.1 |  | 19.7 | 23.6 | half-life [25]: 3.3 h; bioavailability [4]: 54%
15 | O=C(c1ccc2cc(Oc3ccc(C(F)(F)F)cn3)ccc2n1)N1CCC1 |  | 33 |  |  |  |  |  |  | 
16 | O=C(NC1CC(F)(F)C1)c1ccc2cc(Oc3ccc(C(F)(F)F)cn3)ccc2n1 | 12.1 | 33 | 5 (≈ 2.12 µg/mL) |  |  |  |  |  | bioavailability [4]: 82%
17 | N#Cc1ccc(Oc2ccc3nc(OCCN4CCCCC4)ccc3c2)cc1 |  |  |  | 50 | 3.5 | 217 |  | < 1 | 
18 | CN1CCN(C(=O)c2ccc3cc(Oc4ccccn4)ccc3n2)CC1 |  |  | 200 (≈ 69.7 µg/mL) |  | 1.1 |  | 8 | 16.8 | clearance [1]: 70 mL/min/kg
19 | O=C(COc1ccc2cc(Oc3ccccn3)ccc2n1)N1CCNCC1 |  |  | 200 (≈ 72.9 µg/mL) | 183 | 2.7 | 200 | 29.4 |  | 
20 | CN1CCN(C(=O)COc2ccc3cc(Oc4ccc(C(F)(F)F)cn4)ccc3n2)CC1 |  |  | 200 (≈ 89.3 µg/mL) | 100 |  | 967 |  |  | 

Row | Compound | Papp [2] [×10⁻⁶ cm/s] | IC50 [3] [µM] | solubility [5] [µM] | CLH [6] [mL/min/kg] | logD [7] | CLH [8] [mL/min/kg] | Papp [9] [×10⁻⁶ cm/s] | IC50 [10] [µM] | further results
21 | O=C(c1ccc2cc(Oc3cccc(C(F)(F)F)n3)ccc2n1)N1CCNCC1 |  |  | 200 (≈ 80.5 µg/mL) |  | 3 |  | 52.2 | 12.8 | clearance [1]: 83.3 mL/min/kg
22 | O=C(c1ccc2cc(Oc3ccc(S(=O)(=O)C(F)(F)F)cc3)ccc2n1)N1CCNCC1 | 0.8 |  | 150 (≈ 69.8 µg/mL) |  | 3.8 |  |  | 4.27 | efflux ratio [11]: 45.5
23 | O=C(NC1CCOC1)c1ccc2cc(Oc3ccc(C(F)(F)F)cn3)ccc2n1 (stereo not drawn) |  | 33 |  |  |  |  |  |  | 
24 | O=C(NC1CC(F)C1)c1ccc2cc(Oc3ccc(C(F)(F)F)cn3)ccc2n1 (stereo not drawn) | 16.7 | 33 | 5 (≈ 2.03 µg/mL) |  |  |  |  |  | 
25 | NC(=O)CNC(=O)COc1ccc2cc(Oc3ccccn3)ccc2n1 |  |  | 57.5 (≈ 20.3 µg/mL) | 33 | 2.2 | < 45 | 8.7 | 30 | 
26 | O=C(c1ccc2cc(Oc3cc(C(F)(F)F)ccn3)ccc2n1)N1CCNCC1 |  |  | 200 (≈ 80.5 µg/mL) |  | 3.4 |  | 49 | 7.3 | clearance [1]: 115 mL/min/kg; bioavailability [4]: 91%
27 | O=C(NC1CCC1)c1ccc2cc(Oc3ccc(C(F)(F)F)cn3)ccc2n1 | 3.4 | 31.3 | 5 (≈ 1.94 µg/mL) |  |  |  |  |  | 
28 | N#Cc1ccc(Oc2ccc3nc(OCC(=O)N4CCNC(=O)C4)ccc3c2)cc1 |  |  | 141 (≈ 56.7 µg/mL) | < 33 | 3.1 | < 50 | 32.1 |  | 
29 | O=C(c1ccc2cc(Oc3ccc(OC(F)(F)F)cn3)ccc2n1)N1CCNCC1 | 5.1 |  | 150 (≈ 62.8 µg/mL) |  | 3.4 |  |  | 12.8 | half-life [25]: 12.6 h; bioavailability [4]: 92%
30 | O=C(COc1ccc2cc(Oc3ccccn3)ccc2n1)N1CCCCC1 |  |  | 156 (≈ 56.7 µg/mL) | 100 | 3.6 | 2400 | 66.9 | 30 | 
31 | O=C(c1ccc2cc(Oc3ccc(C(F)(F)F)cn3)ccc2n1)N1CCNC(C(F)(F)F)C1 (stereo not drawn) | 24.3 | 33 | 78 (≈ 36.7 µg/mL) |  |  |  |  |  | clearance [1]: 40.5 mL/min/kg; half-life [25]: 3.17 h; bioavailability [4]: 106%; Vdss [26]: 9.23 L/kg
32 | O=C(c1ccc2cc(Oc3ccc(C(F)(F)F)cc3)ccc2n1)N1CCNCC1 | 2.1 |  | 140 (≈ 56.2 µg/mL) |  | 4 |  |  | 5.91 | efflux ratio [11]: 3.7
33 | O=C1CN(C(=O)COc2ccc3cc(Oc4ccc(C(F)(F)F)cn4)ccc3n2)CCN1 |  |  | 23 (≈ 10.3 µg/mL) | < 56.7 | 3.2 | < 61.7 | 44.1 |  | 
34 | CS(=O)(=O)C1CN(C(=O)c2ccc3cc(Oc4ccc(C(F)(F)F)cn4)ccc3n2)C1 | 21.5 |  | 18 (≈ 8.13 µg/mL) |  |  |  |  |  | half-life [25]: 3.4 h; bioavailability [4]: 126%
35 | N#Cc1ccc(-c2ccc3c(ccc(=O)n3CC(=O)N3CCCCC3)c2)cc1 | 16.1 |  |  | 33 |  | 100 |  | 17 | 
36 | O=C(c1ccc2cc(Oc3ccc(F)cn3)ccc2n1)N1CCNCC1 |  |  | 150 (≈ 52.9 µg/mL) |  |  |  |  | 17 | 
37 | N#Cc1ccc(Oc2ccc3nc(OCC(=O)NCC(N)=O)ccc3c2)cc1 |  |  | 0.824 (≈ 0.31 µg/mL) | 33 | 3 | < 50 | 12.8 | > 30 | efflux ratio [11]: 14.9
38 | O=C(c1ccc2cc(Oc3ccc(C(F)(F)F)cn3)ccc2n1)N1CC(F)(F)C1 | 3.04 | 10.2 | 5 (≈ 2.05 µg/mL) |  |  |  |  |  | 
39 | O=C(c1ccc2cc(Oc3ccc(C(F)(F)F)cn3)ccc2n1)N1CC[C@H](F)C1 | 31.6 | 33 | 55 (≈ 22.3 µg/mL) |  |  |  |  |  | clearance [1]: 12.8 mL/min/kg; half-life [25]: 3.67 h; bioavailability [4]: 104%; Vdss [26]: 6.47 L/kg
